Assays:
Sprague Dawley rats = experiment: Rat I.V. Hyperglycemic (150 mg/dl) Clamp Test; type: in vivo; settings: for Insulin Change AUC: 0-15 min; for GIR Change AUC: 0-30 min; for Max Insulin Change: 90 minute test period; for Duration of Insulin Effect: time average insulin change >0 ng/ml
Protocol: b) Hyperglycemic Clamp Studies
Experiments were conducted in chronically catheterized, normal, male Sprague Dawley rats weighing about 350 grams. At least a week prior to studies, surgery was performed on the rats under isoflurane anesthesia. Two catheters were implanted into the jugular vein for infusions of glucose and peptide and one catheter into the carotid artery for blood sampling. The catheters were exteriorized through the skin at the vertex of the head, filled with glycerol/heparin solution (3:1,v/v) and closed off with a one centimeter stainless steel plug. Animals were housed individually in wire mesh cages and allowed free access to standard rat chow diet and water.
Catheterized rats were fasted overnight prior to studies. On the morning of the experiment, rats were weighed and sampling tubings connected to their indwelling catheters. The tubings were enclosed in a light weight stainless steel spring for protection. During the study, rats were kept unrestrained in a plastic shoe box cage (12"×10"×12") with about one inch of bedding. After 15 minutes of acclimation, a basal sample was taken for measurement of insulin and glucose levels. At time -60 minutes, rats were given a bolus of 20% dextrose to raise plasma glucose to 150 mg/dl. The plasma glucose concentration was maintained at this level for the duration of the study by measuring the plasma glucose concentration every five minutes and adjusting the calibrated variable infusion pump accordingly. Blood samples were collected at -15 and 0 minutes for baseline measurements. Immediately after taking the zero minute sample, peptide (130-155 μM stock concentration, diluted in phosphate buffered saline) was injected via the jugular vein catheter and flushed with saline. Blood samples were taken for glucose and insulin determinations at 2, 4, 6, 8, 10, 12, 15, 20, 25, 30, 40, 50, 60, 70, 80, and 90 minutes. All blood samples were collected into syringes coated with sodium heparin, transferred into micro centrifuge tubes and placed on ice. Blood samples were then centrifuged in a micro centrifuge to separate the plasma component.
Plasma glucose levels were determined on the day of the study by the glucose oxidase method using the Beckman Glucose Analyzer 2, while the insulin concentrations were measured by a commercial kit (Diagnostic Products Corporation) with rat insulin standard.
Insulin change (the change in insulin from the baseline value) was calculated as the difference between the insulin concentration at time t and the average insulin concentration prior to injection of test substance. The area under the insulin change curve was calculated using the trapezoidal rule. Glucose infusion rate change (the percent change in the glucose infusion rate from the baseline value) was calculated as the difference between the glucose infusion rate value at time t and the average glucose infusion rate prior to injection of test substance, divided by the average glucose infusion rate prior to injection of test substance, times 100. The area under the glucose infusion rate change curve was calculated on the absolute glucose infusion rate change values (calculated as the difference between the glucose infusion rate value at time t and the glucose infusion rate prior to injection of test substance) using the trapezoidal rule. Values are listed as the mean ± the standard error of the mean (SEM).

beagles = experiment: Dog I.V. Hyperglycemic (150 mg/dl) Clamp Test; type: in vivo; settings: I.V. 1.0 μg/kg
Protocol: a) Hyperglycemic Clamp Studies
Experiments were conducted in overnight-fasted, conscious, adult (1-2 years of age) male and female beagles weighing 8-15 kg. At least ten days prior to the study, animals were anesthetized with isoflurane, and a cut-down was made in the left or right inguinal region. Silastic catheters were inserted into the femoral artery and the proximal caudal femoral vein and secured with 4-0 silk suture. The free ends of the catheters were passed subcutaneously to the back using a trocar needle. The catheters were then filled with a glycerol/heparin solution (3:1, v/v; final heparin concentration of 250 KIU/ml), and the free ends were knotted and placed in a subcutaneous pocket to allow complete closure of the skin. Keflex® was administered both pre-operatively (20 mg/kg, IV and 20 mg/kg, I.M.) and post-operatively (250 mg, p.o. once daily for seven days) to prevent infections. Torbugesic (1.5 mg/kg, I.M.) was administered post-operativelyto control pain.
Blood was drawn just prior to the study day to determine the health of the animal. Only animals with hematocrits above 38% and leukocyte counts below 16,000/mm^3 were used.
The afternoon before the experiment, the free ends of the catheters were exteriorized from the subcutaneous pocket through a small incision made under local anesthesia (2% lidocaine), and the dog was fitted with a tether system jacket and collar assembly.
The morning of the experiment, the contents of the catheters were aspirated, the catheters were flushed with saline, and extension lines (protected by a stainless steel tether) were attached to the catheters. On mornings of IV injection experiments, an over-the-needle, teflon catheter was inserted percutaneously into a cephalic vein in preparation for the administration of an IV bolus of test substance. The dog was placed in a metabolic cage, and the catheter extension lines and tether were attached to a swivel system to allow the dog to move freely about the cage. At this time (-60 minutes), an exogenous infusion of glucose (50% w/v in water) was begun through the chronic venous catheter. Glucose was infused in a descending stepwise fashion over the first six minutes of the study to rapidly raise the plasma glucose concentration to 150 mg/dl. Plasma glucose concentrations were determined every 2.5 to 7.5 minutes throughout the remainder of the study, and the glucose infusion rate was adjusted appropriately to maintain the plasma glucose concentration at 150 mg/dl.
Sixty minutes after the start of the glucose infusion (time 0), test substance was administered either intravenously (1.0, 2.9, 5.0 or 10.0 μg/kg; dose dissolved in 2 ml of saline containing 0.3% dog albumin, w/v) through the previously inserted teflon catheter or subcutaneously (10 μg/kg; 150 μM in phosphate buffered saline) in the dorsal aspect of the neck.
Arterial blood samples (3.5 ml) were taken at -30, -15, 0, 2.5, 5, 7.5, 10, 12.5, 15, 20, 30, 45, 60, 75, 90, 105 and 120 minutes during the IV studies and at -30, -15, 0, 3, 6, 9, 12, 15, 20, 30, 45, 60, 75, 90, 105 and 120 minutes during the SC studies. Samples were collected in vacuum blood collection tubes containing disodium EDTA and immediately placed on ice. To prevent proteolytic cleavage of GLP-1(7-37) in the plasma samples, 1.5 ml of the EDTA containing blood were transferred to a polypropylene tube containing 40 μl of aprotinin (10,000 KIU/ml) and mixed well. The samples were centrifuged, and the resulting plasma was transferred to polypropylene test tubes and stored on ice for the duration of the study.
At the conclusion of the experiment, the animal was anesthetized (isoflurane); the catheters were flushed with fresh saline and filled with the glycerol/heparin mixture; the free ends of the catheters were knotted and placed subcutaneously as described earlier; and antibiotic was administered (300 mg Keflex®, I.M.). […]

Substance: GLP-1(7-37)OH
- Insulin Change AUC (Sprague Dawley rats; I.V. 0.05 μg/kg): 3.0 ± 1.6 ng·min/mL
- GIR Change AUC (Sprague Dawley rats; I.V. 0.05 μg/kg): 48 ± 22 mg/kg
- Max Insulin Change (Sprague Dawley rats; I.V. 0.05 μg/kg): 1.6 ± 0.3 ng/mL
- Duration of Insulin Effect (Sprague Dawley rats; I.V. 0.05 μg/kg): 6 min
- Insulin Change AUC (Sprague Dawley rats; I.V. 0.1 μg/kg): 7.3 ± 2.8 ng·min/mL
- GIR Change AUC (Sprague Dawley rats; I.V. 0.1 μg/kg): 150 mg/kg
- Max Insulin Change (Sprague Dawley rats; I.V. 0.1 μg/kg): 3.6 ± 1.2 ng/mL
- Duration of Insulin Effect (Sprague Dawley rats; I.V. 0.1 μg/kg): 6 min
- Insulin Change AUC (Sprague Dawley rats; I.V. 0.2 μg/kg): 5.8 ± 0.9 ng·min/mL
- GIR Change AUC (Sprague Dawley rats; I.V. 0.2 μg/kg): 154 mg/kg
- Max Insulin Change (Sprague Dawley rats; I.V. 0.2 μg/kg): 2.8 ± 0.1 ng/mL
- Duration of Insulin Effect (Sprague Dawley rats; I.V. 0.2 μg/kg): 6 min
- Insulin Change AUC (Sprague Dawley rats; I.V. 0.6 μg/kg): 14.9 ng·min/mL
- GIR Change AUC (Sprague Dawley rats; I.V. 0.6 μg/kg): 151 mg/kg
- Max Insulin Change (Sprague Dawley rats; I.V. 0.6 μg/kg): 4.9 ± 1.3 ng/mL
- Duration of Insulin Effect (Sprague Dawley rats; I.V. 0.6 μg/kg): 6 min
- Insulin Change AUC (Sprague Dawley rats; I.V. 1.0 μg/kg): 16.7 ng·min/mL
- GIR Change AUC (Sprague Dawley rats; I.V. 1.0 μg/kg): 131 mg/kg
- Max Insulin Change (Sprague Dawley rats; I.V. 1.0 μg/kg): 7.7 ± 0.8 ng/mL
- Duration of Insulin Effect (Sprague Dawley rats; I.V. 1.0 μg/kg): 6 min
- Insulin Change AUC (Sprague Dawley rats; I.V. 2.0 μg/kg): 11.5 ng·min/mL
- GIR Change AUC (Sprague Dawley rats; I.V. 2.0 μg/kg): 152 mg/kg
- Max Insulin Change (Sprague Dawley rats; I.V. 2.0 μg/kg): 3.6 ± 0.9 ng/mL
- Duration of Insulin Effect (Sprague Dawley rats; I.V. 2.0 μg/kg): 6 min
- Insulin Change AUC (Sprague Dawley rats; I.V. 4.0 μg/kg): 10.4 ng·min/mL
- GIR Change AUC (Sprague Dawley rats; I.V. 4.0 μg/kg): 139 mg/kg
- Max Insulin Change (Sprague Dawley rats; I.V. 4.0 μg/kg): 2.0 ± 0.4 ng/mL
- Duration of Insulin Effect (Sprague Dawley rats; I.V. 4.0 μg/kg): 40 min

Substance: Lys^34 -N^ε -octanoyl-GLP-1(7-37)OH [Lys^34-N^ε-octanoyl-GLP-1(7-37)OH]
- Insulin Change AUC (Sprague Dawley rats; I.V. 1.0 μg/kg): 13.2 ng·min/mL
- GIR Change AUC (Sprague Dawley rats; I.V. 1.0 μg/kg): 132 mg/kg
- Max Insulin Change (Sprague Dawley rats; I.V. 1.0 μg/kg): 2.4 ± 0.8 ng/mL
- Duration of Insulin Effect (Sprague Dawley rats; I.V. 1.0 μg/kg): 4 min
- GIR Change AUC (beagles; 0-60 min, mean ± SEM): 463 ± 12 mg/kg
- Insulin Change AUC (beagles; 0-60 min, mean ± SEM): 50 ± 2 ng·min/mL
- Max Insulin Change (beagles; 120 minute test period, mean ± SEM): 3.8 ± 1.0 ng/mL
- Duration of Insulin Effect (beagles; time average insulin change consistently ≥0.5 ng/ml): 15 min
